Data as given in the supplement of paper PMC10627819.

Assays:
Experiment in all cases: Bliss interaction score (quartile over a dose matrix) (fitness difference); higher = more antagonism (negative = synergy)
S. aureus Newman = system: S. aureus Newman
In short: (§1)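 Combination data were used to infer fitness under each single drug. Fitness is the OD595 at entry into stationary phase divided by the robust mean of the plate's no-drug wells, with a cap of 1. The Bliss score is the observed minus the expected product fitness, summarised by quartiles over technical, biological and donor/recipient replicates.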

S. pneumoniae D39V = system: S. pneumoniae D39V
In short: as §1

B. subtilis 168 = system: B. subtilis 168
In short: as §1

S. aureus DSM 20231 = system: S. aureus DSM 20231
In short: as §1
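Further: first quartile when negative (synergy) and third quartile when positive (antagonism).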

Row | Structure (SMILES) | Bliss interaction score (S. aureus Newman) | Bliss interaction score (S. pneumoniae D39V) | Bliss interaction score (B. subtilis 168) | Bliss interaction score (S. aureus DSM 20231)
1 | C[C@@H](O)[C@H]1C(=O)N2C(C(=O)O)=C(SCCNC=N)C[C@H]12 [Imipenem] + CO[C@@H]1[C@@H](OC(N)=O)[C@@H](O)[C@H](Oc2ccc3c(O)c(NC(=O)c4ccc(O)c(CC=C(C)C)c4)c(=O)oc3c2C)OC1(C)C [Novobiocin] | -0.0163 | -0.107 | -0.166 | 0.0228
2 | C[C@@H](O)[C@H]1C(=O)N2C(C(=O)O)=C(SCCNC=N)C[C@H]12 [Imipenem] + CO[C@@]12[C@H](COC(N)=O)C3=C(C(=O)C(C)=C(N)C3=O)N1C[C@@H]1N[C@@H]12 [MitomycinC] | 0.0577 | -0.0563 | -0.0977 | -0.03
3 | C[C@@H](O)[C@H]1C(=O)N2C(C(=O)O)=C(SCCNC=N)C[C@H]12 [Imipenem] + COc1cc(Cc2cnc(N)nc2N)cc(OC)c1OC [Trimethoprim] | -0.0308 | 0.153 | -0.127 | -0.0457
4 | C[C@@H](O)[C@H]1C(=O)N2C(C(=O)O)=C(SCCNC=N)C[C@H]12 [Imipenem] + Oc1cc(Cl)ccc1Oc1ccc(Cl)cc1Cl [Triclosan] | 0.0211 | 0.0753 | -0.0589 | 0.0376
5 | CCC[C@@H]1C[C@@H](C(=O)N[C@@H]([C@H]2O[C@H](SC)[C@H](O)[C@@H](O)[C@H]2O)[C@@H](C)O)N(C)C1 [Lincomycin] + CC1(C)S[C@@H]2[C@H](NC(=O)Cc3ccccc3)C(=O)N2[C@H]1C(=O)O [PenicillinG] | 0.0805 | 0.0998 | 0.0736 | 0.0494
6 | CCC[C@@H]1C[C@@H](C(=O)N[C@@H]([C@H]2O[C@H](SC)[C@H](O)[C@@H](O)[C@H]2O)[C@@H](C)O)N(C)C1 [Lincomycin] + CC[C@H]1OC(=O)[C@H](C)C(=O)[C@H](C)[C@@H](O[C@@H]2O[C@H](C)C[C@H](N(C)C)[C@H]2O)[C@](C)(OC)C[C@@H](C)C(=O)[C@H](C)[C@H]2N(CCCCn3cnc(-c4cccnc4)c3)C(=O)O[C@]12C [Telithromycin] | -0.0488 | -0.171 | 0.091 | -0.053
7 | CCC[C@@H]1C[C@@H](C(=O)N[C@@H]([C@H]2O[C@H](SC)[C@H](O)[C@@H](O)[C@H]2O)[C@@H](C)O)N(C)C1 [Lincomycin] + CN[C@H](CC(C)C)C(=O)N[C@H]1C(=O)N[C@@H](CC(N)=O)C(=O)N[C@H]2C(=O)N[C@H]3C(=O)N[C@H](C(=O)N[C@H](C(=O)O)c4cc(O)cc(O)c4-c4cc3ccc4O)[C@H](O[C@H]3C[C@](C)(N)[C@@H](O)[C@H](C)O3)c3ccc(c(Cl)c3)Oc3cc2cc(c3O[C@@H]2O[C@H](CO)[C@@H](O)[C@H](O)[C@H]2O[C@H]2C[C@](C)(NCc3ccc(-c4ccc(Cl)cc4)cc3)[C@@H](O)[C@H](C)O2)Oc2ccc(cc2Cl)[C@H]1O [Oritavancin] | -0.0583 | 0.0612 | 0.0264 | -0.0375
8 | CCC[C@@H]1C[C@@H](C(=O)N[C@@H]([C@H]2O[C@H](SC)[C@H](O)[C@@H](O)[C@H]2O)[C@@H](C)O)N(C)C1 [Lincomycin] + CO[C@@]12[C@H](COC(N)=O)C3=C(C(=O)C(C)=C(N)C3=O)N1C[C@@H]1N[C@@H]12 [MitomycinC] | -0.0572 | -0.0879 | 0.0735 | -0.0874
9 | CCC[C@@H]1C[C@@H](C(=O)N[C@@H]([C@H]2O[C@H](SC)[C@H](O)[C@@H](O)[C@H]2O)[C@@H](C)O)N(C)C1 [Lincomycin] + Oc1cc(Cl)ccc1Oc1ccc(Cl)cc1Cl [Triclosan] | 0.0423 | -0.119 | -0.0218 | -0.224
10 | COc1c(N2C[C@@H]3CCCN[C@@H]3C2)c(F)cc2c(=O)c(C(=O)O)cn(C3CC3)c12 [Moxifloxacin] + C/C(=C\C(=O)OCCCCCCCCC(=O)O)C[C@@H]1OC[C@H](C[C@@H]2O[C@H]2[C@@H](C)[C@H](C)O)[C@@H](O)[C@H]1O [Pseudomonic acid] | 0.0227 | 0.072 | 0.0399 | -0.019
11 | COc1c(N2C[C@@H]3CCCN[C@@H]3C2)c(F)cc2c(=O)c(C(=O)O)cn(C3CC3)c12 [Moxifloxacin] + CC1(C)S[C@@H]2[C@H](NC(=O)Cc3ccccc3)C(=O)N2[C@H]1C(=O)O [PenicillinG] | -0.0783 | 0.0895 | 0.0377 | 0.0629
12 | COc1c(N2C[C@@H]3CCCN[C@@H]3C2)c(F)cc2c(=O)c(C(=O)O)cn(C3CC3)c12 [Moxifloxacin] + CC[C@H]1OC(=O)[C@H](C)C(=O)[C@H](C)[C@@H](O[C@@H]2O[C@H](C)C[C@H](N(C)C)[C@H]2O)[C@](C)(OC)C[C@@H](C)C(=O)[C@H](C)[C@H]2N(CCCCn3cnc(-c4cccnc4)c3)C(=O)O[C@]12C [Telithromycin] | 0.0472 | 0.0543 | 0.0281 | 0.0615
13 | COc1c(N2C[C@@H]3CCCN[C@@H]3C2)c(F)cc2c(=O)c(C(=O)O)cn(C3CC3)c12 [Moxifloxacin] + CN[C@H](CC(C)C)C(=O)N[C@H]1C(=O)N[C@@H](CC(N)=O)C(=O)N[C@H]2C(=O)N[C@H]3C(=O)N[C@H](C(=O)N[C@H](C(=O)O)c4cc(O)cc(O)c4-c4cc3ccc4O)[C@H](O[C@H]3C[C@](C)(N)[C@@H](O)[C@H](C)O3)c3ccc(c(Cl)c3)Oc3cc2cc(c3O[C@@H]2O[C@H](CO)[C@@H](O)[C@H](O)[C@H]2O[C@H]2C[C@](C)(NCc3ccc(-c4ccc(Cl)cc4)cc3)[C@@H](O)[C@H](C)O2)Oc2ccc(cc2Cl)[C@H]1O [Oritavancin] | 0.0436 | -0.052 | 0.024 | -0.0425
14 | COc1c(N2C[C@@H]3CCCN[C@@H]3C2)c(F)cc2c(=O)c(C(=O)O)cn(C3CC3)c12 [Moxifloxacin] + Oc1cc(Cl)ccc1Oc1ccc(Cl)cc1Cl [Triclosan] | -0.038 | 0.0747 | 0.0151 | -0.0397
